Measured values from patent publication US20150185224A1, “[…] CANCER RESPONSIVENESS TO BCG” (MEMORIAL SLOAN-KETTERING CANCER CENTER, priority 2012, published 2015).

Assays:
Format in all cases: cell-based, human
[1] = system: VMCUB-3 transfected with H-ras (G12V)
[2] = system: MGH-U4 transfected with PTEN shRNA
[3] = system: J82, T24, and UM-UC-3 bladder cancer cell lines
[4] = system: MGH-U3
[5] = system: VMCUB-3
[6] = system: UM-UC-3
[7] = system: T24
[8] = system: J82

Oc1ccc2ccccc2c1SSc1c(O)ccc2ccccc12 [IPA-3]
effect on increased BCG uptake in a cell line with activated Ras [1]: inhibited increased BCG uptake | effect on the increase in BCG uptake after PTEN knockdown [2]: completely abrogated the increase in BCG uptake

COc1ccc2c(c1)c(C1=C(c3c[nH]c4ccccc34)C(=O)NC1=O)cn2CCCN(C)C [Gö-6983]
effect on BCG uptake [3]: not inhibited

PTEN shRNA (CCGGCCACAGCTAGAACTTATCAAACTCGAGTTTGATAAGTTCTAGCTGT)
increase in uptake of BCG compared to non-targeting shRNA control [4]: approximately 2 fold | increase in uptake of BCG compared to non-targeting shRNA control [5]: not seen

O=c1c(-c2ccc(O)cc2)coc2cc(O)cc(O)c12 [genistein]
effect on BCG uptake [6]: not | effect on BCG uptake [7]: not | effect on BCG uptake [8]: significantly inhibited

C[C@@H](N)[C@H]1CC[C@H](C(=O)Nc2ccncc2)CC1 [Y-27632]
effect on BCG uptake [3]: did not have a significant effect

Cc1ccc2c(c1)C(=O)C1(O)CCN(c3ccccc3)C1=N2 (stereo not shown) [blebbistatin]
effect on BCG uptake [3]: not inhibited
